From PubChem BioAssay (NCI)
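The compound was tested at five concentrations on cells cultured in 96-well plates, with a 48-hour exposure period. Here, GI50 denotes the concentration required for 50% inhibition of growth. TGI: total growth inhibition.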

Legend:
Assay in all cases: growth of human tumour cells (NCI), 48 h
DLD-1 colon = system: DLD-1 colon
SK-OV-3 ovarian = system: SK-OV-3 ovarian
OVCAR-3 ovarian = system: OVCAR-3 ovarian
SNB-78 CNS = system: SNB-78 CNS
NCI-H460 lung = system: NCI-H460 lung
SK-MEL-5 melanoma = system: SK-MEL-5 melanoma
UACC-257 melanoma = system: UACC-257 melanoma
SK-MEL-2 melanoma = system: SK-MEL-2 melanoma
DMS 114 small cell lung = system: DMS 114 small cell lung
NCI-H226 lung = system: NCI-H226 lung
OVCAR-4 ovarian = system: OVCAR-4 ovarian

SMILES	TGI (DLD-1 colon) [µM]	TGI (SK-OV-3 ovarian) [µM]	TGI (OVCAR-3 ovarian) [µM]	TGI (SNB-78 CNS) [µM]	TGI (NCI-H460 lung) [µM]	TGI (SK-MEL-5 melanoma) [µM]	TGI (UACC-257 melanoma) [µM]	TGI (SK-MEL-2 melanoma) [µM]	TGI (DMS 114 small cell lung) [µM]	TGI (NCI-H226 lung) [µM]	TGI (OVCAR-4 ovarian) [µM]	GI50 (SK-OV-3 ovarian) [µM]	GI50 (OVCAR-3 ovarian) [µM]	GI50 (NCI-H460 lung) [µM]	GI50 (NCI-H226 lung) [µM]	GI50 (SK-MEL-5 melanoma) [µM]	GI50 (OVCAR-4 ovarian) [µM]	GI50 (UACC-257 melanoma) [µM]	GI50 (SK-MEL-2 melanoma) [µM]
O=Cc1ccc(CCl)cc1	31.4	51.7	34.9	47.7	37.1	30.2	36.5	32.2	23.5	–	–	–	–	–	–	–	–	–	–
COC(=O)C1=C(OC(=O)/C=C/c2ccc(Cl)cc2)C(C(=O)OC)[C@@]2(O)[C@@H](C(=O)OC)[C@H](C)C[C@@H]1[C@@H]2C(=O)OC (some centres undefined)	–	> 100	> 100	–	> 100	32.2	> 100	37	–	61	> 100	–	–	–	–	–	–	–	–
COC1(O)c2cccc(Cl)c2C(=O)N1C1(C(N)=O)CCCCC1 (centres undefined)	> 100	> 100	> 100	> 100	> 100	> 100	> 100	> 100	> 100	> 100	> 100	–	–	–	–	–	–	–	–
CSc1nc2c(ncn2C2OCC(O)C(O)C2O)c(=O)n1C (centres undefined)	> 100	> 100	> 100	> 100	> 100	> 100	> 100	> 100	> 100	> 100	> 100	–	–	–	–	–	–	–	–
COc1cc2c(cc1OC)C(=O)/C(=C/c1cc(OC)c(OC)c(OC)c1)C2	–	> 100	> 100	–	> 100	> 100	–	> 100	–	> 100	> 100	–	–	–	–	–	–	–	–
CN1CCN(Cc2ccc(NC(=O)c3cccc(C#Cc4cnc(N)c5ncccc45)c3F)cc2C(F)(F)F)CC1	–	7.46	12	–	1.37	12.1	1.65	1.94	–	1.97	1.59	1.39	5.07	0.561	0.647	4.3	0.735	0.828	0.522
CC(=O)NC(Cc1ccsc1)C(=O)O (centres undefined)	> 100	> 100	> 100	> 100	> 100	> 100	> 100	> 100	> 100	> 100	> 100	–	–	–	–	–	–	–	–
COc1cccc(NC(=O)C(=O)C(C(=O)c2ccccc2F)C2OC(=O)c3ccccc32)c1 (centres undefined)	> 100	> 100	–	> 100	> 100	> 100	> 100	75.2	–	63.5	> 100	–	–	–	–	–	–	–	–
COC(=O)C(C/C=C(\C)c1ccc(Cl)cc1)C(C)=O (centres undefined)	> 100	> 100	> 100	> 100	> 100	51.7	> 71.3	32.9	> 73.8	> 91	> 100	–	–	–	–	–	–	–	–
COc1ccc2[nH]c3c(C)c4ccnc(NCCCN(C)CCCNc5ccc6ncn7c8ccccc8c(=O)c5c67)c4c(C)c3c2c1	–	6.8	6.56	–	0.682	4.61	2.9	8.74	–	2.54	6.94	–	–	–	–	–	–	–	–
O=C(O)C12CCCCC1CCCC2 (centres undefined)	> 100	> 100	> 100	–	> 100	> 100	–	–	> 100	> 100	> 100	–	–	–	–	–	–	–	–
